Tests used:
Type in all cases: cell-based, human
HT-29 cancer cells = assay: Dual Sensor: MitoCasp Assay in HT-29 colon cancer cells; settings: HT-29 cells, 2.5 μM, 5.0 μM, 10 μM and 15 μM, 24 hours
From the text: Techniques to assay enzymatic and signaling processes involved in apoptosis have been developed as standard protocols. One example of an early step in apoptosis, is the release of cytochrome C from mitochondria and the activation of caspase-3. Induction of the caspases (a series of cytosolic proteases) is one of the most consistently observed features of apoptosis. Caspases are a family of proteolytic enzymes that transmit the apoptotic signal using a proteolytic cascade. […] Caspases 3 and 7 are effector caspases, central to the caspase cascade pathways. In particular, caspase-3 plays a central role in the process. When caspases are activated, they cleave target proteins; one of the most important of these is poly-(ADP-ribose) polymerase (PARP), which is a protein located in the nucleus. Therefore, assays detecting release of cytochrome C, detecting caspase-3 activity and detecting PARP degradation are effective determinants of apoptosis. The loss of mitochondrial membrane potential is known to occur during apoptosis. […] Collapse of the mitochondrial membrane potential during apoptosis prevents the dye from accumulating in the mitochondria resulting in a decrease in fluorescent intensity that can be detected with flow cytometry. […] In this assay, caspase 3/7 activity is detected using a cell permeable carboxyfluorescein labeled caspase inhibitor, which binds covalently to active caspases 3 and 7. Cells that contain bound inhibitor are detected by an increase in fluorescence when samples are analyzed by flow cytometry.
Following PC1448 treatment, adherent and non-adherent cells were harvested and washed with cold PBS. […] Samples were analyzed by flow cytometry measuring the fluorescence emissions from 515 nm to 530 nm for caspase detection, and 574 nm to 600 nm for mitochondrial membrane potential detection. […]
HT-29 cancer cells were treated with 2.5 μM, 5.0 μM and 10 μM of PC1526 or PC1448 for 23 hours, or with 2.5 μM, 5.0 μM and 10 μM PC1422 for 24 hours and assessed using the Dual Sensor: MitoCasp™ Assay. […]

CRL-2522 cells = assay: Dual Sensor: MitoCasp Assay in CRL-2522 normal fibroblast cells; settings: CRL-2522 cells
From the text: (§1) Techniques to assay enzymatic and signaling processes involved in apoptosis have been developed as standard protocols. One example of an early step in apoptosis, is the release of cytochrome C from mitochondria and the activation of caspase-3. Induction of the caspases (a series of cytosolic proteases) is one of the most consistently observed features of apoptosis. Caspases are a family of proteolytic enzymes that transmit the apoptotic signal using a proteolytic cascade. […] Caspases 3 and 7 are effector caspases, central to the caspase cascade pathways. In particular, caspase-3 plays a central role in the process. When caspases are activated, they cleave target proteins; one of the most important of these is poly-(ADP-ribose) polymerase (PARP), which is a protein located in the nucleus. Therefore, assays detecting release of cytochrome C, detecting caspase-3 activity and detecting PARP degradation are effective determinants of apoptosis. The loss of mitochondrial membrane potential is known to occur during apoptosis. To analyze mitochondrial membrane potential, a cationic dye may be used which accumulates in the mitochondria of healthy cells. Collapse of the mitochondrial membrane potential during apoptosis prevents the dye from accumulating in the mitochondria resulting in a decrease in fluorescent intensity that can be detected with flow cytometry. Dual Sensor: MitoCasp™ (Cell Technology) used herein in the Examples is an assay that measures caspase 3/7 activity and cells with decreased mitochondrial membrane potential. In this assay, caspase 3/7 activity is detected using a cell permeable carboxyfluorescein labeled caspase inhibitor, which binds covalently to active caspases 3 and 7. Cells that contain bound inhibitor are detected by an increase in fluorescence when samples are analyzed by flow cytometry.
(§2) Following centrifugation at 500×g for 5 min, cell pellets were resuspended in PBS at 3.3×10^6 cells/mL. 300 μL cell suspension was mixed with 10 μL each of 30X Mitochondria Membrane Potential Dye and 30X Caspase 3/7 detection reagent. Following incubation for 60 min under normal growth conditions, cells were washed twice with 1× wash buffer and resuspended in 0.5 mL 1× wash buffer. Samples were analyzed by flow cytometry measuring the fluorescence emissions from 515 nm to 530 nm for caspase detection, and 574 nm to 600 nm for mitochondrial membrane potential detection.
CRL-2522 cells, acquired from ATCC, (American Type Culture Collection) are normal fibroblast cells that originated from human foreskin. CRL-2522 cells were maintained in RPMI 1640 medium (Gibco) supplemented with 10% fetal bovine serum (Cansera), 100 U/mL penicillin, 100 μg/mL streptomycin and 0.25 μg/mL amphotericin B. Cultures were maintained in medium at 37° C. with 5% CO2 and 100% relative humidity. […]

MDA-MB-231 cells = assay: Dual Sensor: MitoCasp Assay in MDA-MB-231 breast cancer cells
From the text: as §1, §2
The MDA-MB-231 cell line (ATCC #HTB-26) was derived from the pleural effusion of a patient with a breast adenocarcinoma (Cailleau et al., 1974). The cells were maintained in RPMI 1640 (Gibco) supplemented with 10% fetal bovine serum (Camera), 100 U/mL penicillin, 100 μg/mL streptomycin and 0.25 μg/mL amphotericin B. Cultures were maintained in medium at 37° C. with 5% CO2 and 100% relative humidity. […]

PC-3 cells = assay: Dual Sensor: MitoCasp Assay in PC-3 prostate cancer cells
From the text: as §1
PC-3 cells (ATCC #CRL-1435) were derived from a prostate adenocarcinoma (Kaighn et al., 1979). They were maintained in RPMI 1640 medium (Gibco) supplemented with 10% fetal bovine serum (Cansera), 100 U/mL penicillin, and 100 μg/mL streptomycin and 0.25 μg/mL amphotericin B. Cultures were maintained in medium at 37° C. with 5% CO2 and 100% relative humidity.
To harvest adherent cells, the existing medium was removed and cells were dissociated with 0.25% (w/v) trypsin-EDTA·4Na in Hank's Balanced Salt Solution (Gibco). To block the proteolytic action of the trypsin, the cells were resuspended in an excess of media containing fetal bovine serum. Cells were transferred to a 15 mL conical centrifuge tube and pelleted by centrifugation at 500×g for 5 min. Cell pellets were resuspended in media, and an aliquot of the cells were seeded into a new flask.
PC-3 cells were seeded in tissue culture flasks with regular growth medium and maintained under normal conditions. […] Following incubation under normal growth conditions for the specified time, cells were washed once with cold phosphate-buffered saline (PBS) (137 mM NaCl, 2.7 mM KCl, 4.3 mM Na2HPO4.7H2O, 1.4 mM KH2PO4) and harvested as previously described. Assays were carried out according to instructions given in kits. All Flow Cytometry was performed using a Coulter Epics XL (Beckman).
as §2

Structure (SMILES): CC1OC(OC(=O)C23CCC(C)(C)CC2C2=CCC4C5(C)CCC(OC6OC(C(=O)O)C(O)C(O)C6OC6OC(CO)C(O)C(O)C6O)C(C)(C=O)C5CCC4(C)C2(C)CC3O)C(OC2OC(C)C(OC3OCC(O)C(O)C3O)C(O)C2O)C(OC2OC(CO)C(O)C2O)C1O (stereo not shown) [PC1380]
- Induction of apoptosis (in words, FIG. 6) (HT-29 cancer cells): does not induce apoptosis
- Cells with caspase 3/7 activity (CRL-2522 cells; 2.5 μM PC1380, 32 hr): 0.4%
- Cells with decreased mitochondrial membrane potential (CRL-2522 cells; 2.5 μM PC1380, 32 hr): 1.8%
- Cells with caspase 3/7 activity (CRL-2522 cells; 5.0 μM PC1380, 32 hr): 1.0%
- Cells with decreased mitochondrial membrane potential (CRL-2522 cells; 5.0 μM PC1380, 32 hr): 4.0%
- Cells with caspase 3/7 activity (CRL-2522 cells; 10.0 μM PC1380, 32 hr): 1.2%
- Cells with decreased mitochondrial membrane potential (CRL-2522 cells; 10.0 μM PC1380, 32 hr): 2.6%
- Cells with caspase 3/7 activity (CRL-2522 cells; 15.0 μM PC1380, 32 hr): 0.9%
- Cells with decreased mitochondrial membrane potential (CRL-2522 cells; 15.0 μM PC1380, 32 hr): 4.5%
- Apoptosis (in words) (CRL-2522 cells; PC1380 15.0-2.5 μM, 32 hours): no significant apoptosis
- Cells with caspase 3/7 activity (MDA-MB-231 cells; 2.5 μM PC1380, 34 hr): 6.2%
- Cells with decreased mitochondrial membrane potential (MDA-MB-231 cells; 2.5 μM PC1380, 34 hr): 3.2%
- Cells with caspase 3/7 activity (MDA-MB-231 cells; 5.0 μM PC1380, 34 hr): 8.0%
- Cells with decreased mitochondrial membrane potential (MDA-MB-231 cells; 5.0 μM PC1380, 34 hr): 4.7%
- Cells with caspase 3/7 activity (MDA-MB-231 cells; 10.0 μM PC1380, 34 hr): 9.4%
- Cells with decreased mitochondrial membrane potential (MDA-MB-231 cells; 10.0 μM PC1380, 34 hr): 6.6%
- Cells with caspase 3/7 activity (MDA-MB-231 cells; 15.0 μM PC1380, 34 hr): 7.9%
- Cells with decreased mitochondrial membrane potential (MDA-MB-231 cells; 15.0 μM PC1380, 34 hr): 4.3%
- Apoptosis activity (in words) (MDA-MB-231 cells; PC1380 15.0-2.5 μM, 34 hours): no significant apoptosis activity
- Cells with caspase 3/7 activity (PC-3 cells; 2.5 μM PC1380, 35 hr): 11.4%
- Cells with decreased mitochondrial membrane potential (PC-3 cells; 2.5 μM PC1380, 35 hr): 5.8%
- Cells with caspase 3/7 activity (PC-3 cells; 5.0 μM PC1380, 35 hr): 15.3%
- Cells with decreased mitochondrial membrane potential (PC-3 cells; 5.0 μM PC1380, 35 hr): 7.1%
- Cells with caspase 3/7 activity (PC-3 cells; 10.0 μM PC1380, 35 hr): 14.9%
- Cells with decreased mitochondrial membrane potential (PC-3 cells; 10.0 μM PC1380, 35 hr): 8.7%
- Cells with caspase 3/7 activity (PC-3 cells; 15.0 μM PC1380, 35 hr): 31.8%
- Cells with decreased mitochondrial membrane potential (PC-3 cells; 15.0 μM PC1380, 35 hr): 15.9%
- Cells with Caspase 3/7 activity and decreased mitochondrial membrane potential vs untreated (in words) (PC-3 cells; PC1380 15.0-2.5 μM, 35 hours): small increase
